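Compound exposure: 48 hours, 5 concentrations, 96-well plates. TGI denotes the concentration required for complete inhibition of growth.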

Holding throughout (test): inhibition of tumour cell growth, NCI panel, 48 h
The subject of experiment [1] is EKVX NSCLC.
Experiment [2] deals with HCC-2998 colon.
The test system of experiment [3] is HCT-116 colon.
In experiment [4] the test system is HOP-92 NSCLC.
Experiment [5] concerns HS 578T breast.
For experiment [6], the system named is HT29 colon.
In experiment [7] the test system is IGROV1 ovarian.
In experiment [8] the test system is KM12 colon.
The test system of experiment [9] is MCF7 breast.
For experiment [10], the system named is MDA-MB-435.
Experiment [11] relates to NCI-H460 lung.
Experiment [12] concerns OVCAR-3 ovarian.
The subject of experiment [13] is OVCAR-5 ovarian.
The subject of experiment [14] is SF-539 CNS.
Experiment [15] has as its system SK-MEL-28 melanoma.
Experiment [16] relates to SNB-19 CNS.
The subject of experiment [17] is TK-10 renal.
Experiment [18] concerns UACC-62 melanoma.

Regarding `COc1cc(C2S/C(=C/c3ccccc3)C(=O)N2c2ccc([N+](=O)[O-])cc2)cc(OC)c1OC` (stereo not given), the TGI in experiment [1], in [2], in [3], in experiment [4], in [5] and in experiment [6] was greater than 100 µM each time. For the same molecule, the TGI is greater than 83.5 µM in experiment [7]; greater than 100 µM in experiment [8]; greater than 100 µM in experiment [9]; greater than 100 µM in experiment [10]; greater than 100 µM in [11]; greater than 100 µM in [12]. Also, the TGI in [13], in [14], in [15], in experiment [16], in experiment [17] and in [18] was greater than 100 µM throughout.

Take `N#CC(C#N)=C1CCCCc2ccc([N+](=O)[O-])cc21`: the TGI in experiment [1] was greater than 100 µM; in experiment [2] it was greater than 100 µM; in experiment [3], 54.8 µM; in experiment [4] it was greater than 100 µM; in [5], greater than 100 µM; in experiment [6] it was greater than 100 µM. The TGI in [7], in experiment [8], in experiment [9], in [10], in experiment [11] and in experiment [12] was greater than 100 µM each time. Further, the TGI in experiment [13], in [14], in experiment [15], in experiment [16], in experiment [17] and in experiment [18] was greater than 100 µM throughout.

As to `COc1ccccc1CNCc1nc2ccccc2[nH]1`, the TGI in [1], in experiment [2], in experiment [3], in experiment [4], in experiment [5] and in experiment [6] was greater than 100 µM throughout. For the same molecule, the TGI in [7], in experiment [8], in experiment [9], in [10], in [11] and in experiment [12] was greater than 100 µM throughout. The TGI in [13], in [14], in experiment [15], in experiment [16], in experiment [17] and in experiment [18] was greater than 100 µM each time.

Consider `CC(C)(CCCCC(C)(C)NCC1COc2ccccc2O1)NCC1COc2ccccc2O1` (stereo not given), for which the TGI in experiment [1] was greater than 10 µM; in experiment [2] it was 4.73 µM; in [3], greater than 10 µM; in experiment [4], 7.43 µM; in experiment [5], greater than 10 µM; in experiment [6] it was 7.08 µM. The TGI was greater than 10 µM in [7]; greater than 10 µM in experiment [8]; greater than 10 µM in [9]; 3.6 µM in experiment [10]; greater than 10 µM in experiment [11]; greater than 10 µM in experiment [12]. In addition, the TGI in experiment [13] was greater than 10 µM; in experiment [14] it was 3.34 µM; in experiment [15], 3.66 µM; in experiment [16], greater than 10 µM; in [17], greater than 10 µM; in experiment [18], 9.93 µM.

For the molecule `CC(=C(C(=O)O)C(=O)O)c1cc(-c2cccs2)cc(-c2ccc(Cl)cc2)c1O`, the TGI in experiment [1] was 32.2 µM; in [2], 38 µM; in experiment [3], 29.1 µM; in [4], 34.3 µM; in [5], greater than 90.7 µM; in experiment [6] it was 40.5 µM. For the same molecule, the TGI in [7] was found to be 29.3 µM; in experiment [8], 24.2 µM; in experiment [9] it was 17.9 µM; in experiment [10], 35.1 µM; in [11] it was 37.3 µM; in experiment [12], 33.6 µM. The TGI in experiment [13] was greater than 86.8 µM; in experiment [14], 29.8 µM; in experiment [15], 36.3 µM; in experiment [16], 37.1 µM; in [17], 31.9 µM; in experiment [18] it was 35.7 µM.

For `CCOC(=O)c1c(-c2ccccc2)[nH]c2ccc(Cl)cc2c1=O`, the TGI in experiment [1] was greater than 100 µM; in experiment [2], greater than 100 µM; in experiment [3], greater than 100 µM; in experiment [4], 73.6 µM; in experiment [5], greater than 100 µM; in experiment [6], greater than 100 µM. The TGI in experiment [7] was greater than 100 µM; in [8], greater than 100 µM; in experiment [9] it was greater than 100 µM; in experiment [10], greater than 100 µM; in experiment [11], greater than 100 µM; in experiment [12], 38.9 µM. Further, the TGI in experiment [13], in [14], in experiment [15], in [16], in [17] and in experiment [18] was greater than 100 µM in each case.

In the case of `C[C@@H]1OC2(O)[C@@H]3CCCN3C(=O)N(Cc3ccccc3)N2C1=O` (stereo not given in full), the TGI in experiment [1], in experiment [2], in [3], in experiment [4], in [5] and in experiment [6] was greater than 100 µM throughout. Further, the TGI in experiment [7], in experiment [8], in [9], in [10], in experiment [11] and in experiment [12] was greater than 100 µM throughout. The TGI in experiment [13], in [14], in [15], in [16], in [17] and in [18] was greater than 100 µM in each case.

`COC(=O)C(Cc1c[nH]c2ccccc12)NP(=O)(O)OCC1OC(n2cc(F)c(=O)[nH]c2=O)CC1O` (stereo not given): the TGI in experiment [1], in experiment [2], in experiment [3], in experiment [4], in experiment [5] and in experiment [6] was greater than 100 µM in each case. Besides, the TGI in [7], in experiment [8], in [9], in experiment [10], in experiment [11] and in experiment [12] was greater than 100 µM in each case. Further, the TGI in experiment [13], in [14], in experiment [15], in experiment [16], in experiment [17] and in [18] was greater than 100 µM throughout.

`COC(=O)c1c(C(=O)OC)c(C(c2ccccc2)c2ccccc2)n(-c2ccccc2)c1Cl`: the TGI in experiment [1], in experiment [2], in experiment [3], in experiment [4], in experiment [5] and in experiment [6] was greater than 10 µM in each case. The TGI in [7], in [8], in [9], in experiment [10], in experiment [11] and in experiment [12] was greater than 10 µM in each case. For the same molecule, the TGI in [13], in experiment [14], in experiment [15], in experiment [16], in [17] and in experiment [18] was greater than 10 µM in each case.

Regarding `O=c1[nH]n(Cc2ccccc2CCl)c2ccc([N+](=O)[O-])cc12`, the TGI was greater than 100 µM in [1]; 42.4 µM in [2]; greater than 100 µM in experiment [3]; greater than 100 µM in [4]; greater than 100 µM in experiment [5]; greater than 100 µM in [6]. The TGI in [7] is greater than 100 µM; in [8] it was greater than 100 µM; in experiment [9] it was greater than 100 µM; in [10], greater than 100 µM; in experiment [11], 95.8 µM; in [12], greater than 100 µM. The TGI in experiment [13], in experiment [14], in [15], in experiment [16], in [17] and in experiment [18] was greater than 100 µM throughout.

On to `CC(C)C(Cl)CC/C(CBr)=C(\Cl)CCl` (stereo not given), for which the TGI worked out at 34 µM in experiment [1]; 26.7 µM in [2]; 8.35 µM in experiment [3]; 7.73 µM in experiment [4]; 11.8 µM in experiment [5]; 11.7 µM in experiment [6]. Moreover, the TGI was found to be 4.09 µM in experiment [7]; 16.4 µM in experiment [8]; 1.29 µM in experiment [9]; 10 µM in experiment [10]; 29.3 µM in experiment [11]; 10.4 µM in [12]. Also, the TGI in experiment [13] was 31.2 µM; in experiment [14] it was 29.5 µM; in experiment [15] it was 12 µM; in [16] it was 28.3 µM; in experiment [17], 28 µM; in experiment [18], 6.16 µM.

Consider `C/C(=C/CNc1ncnc2c1ncn2CCC#N)CO`, for which the TGI in experiment [1], in [2], in experiment [3], in experiment [4], in experiment [5] and in experiment [6] was greater than 100 µM throughout. For the same molecule, the TGI in experiment [7], in [8], in experiment [9], in experiment [10], in experiment [11] and in [12] was greater than 100 µM in each case. The TGI in experiment [13], in experiment [14], in [15], in experiment [16], in experiment [17] and in [18] was greater than 100 µM each time.

Turning to `NC(=O)NC(=O)c1ccc(NC(=O)CBr)cc1`, the TGI in experiment [1] amounted to 5.41 µM; in experiment [2], 25.5 µM; in experiment [3], 2.29 µM; in [4], 4.59 µM; in [5], 7.37 µM; in experiment [6], 3.42 µM. Besides, the TGI in experiment [7] was 4.78 µM; in [8], 10.1 µM; in experiment [9], 4.9 µM; in [10], 3.06 µM; in [11] it was 9.74 µM; in experiment [12] it was 2.74 µM. Moreover, the TGI was 7.34 µM in [13]; 6.35 µM in [14]; 13.1 µM in experiment [15]; greater than 49.8 µM in experiment [16]; 2.68 µM in experiment [17]; 4.03 µM in [18].

Take `COc1cc(/C=C2\N=C(c3ccccc3)N(/N=C/c3cc4cc(C)ccc4nc3Cl)C2=O)cc(OC)c1OC`: the TGI is greater than 100 µM in experiment [1]; 45.4 µM in experiment [2]; greater than 100 µM in experiment [3]; greater than 100 µM in [4]; 88.8 µM in [5]; greater than 100 µM in [6]. The TGI in experiment [7] is greater than 100 µM; in experiment [8] it was greater than 100 µM; in experiment [9] it was greater than 100 µM; in experiment [10], 40.7 µM; in experiment [11], greater than 100 µM; in experiment [12], greater than 100 µM. For the same molecule, the TGI is greater than 100 µM in experiment [13]; 41.8 µM in [14]; greater than 100 µM in [15]; greater than 100 µM in experiment [16]; greater than 100 µM in experiment [17]; greater than 100 µM in experiment [18].

Regarding `Cc1n[nH]c(=O)n1/N=C/c1cccnc1`, the TGI in [1], in experiment [2], in experiment [3], in experiment [4], in experiment [5] and in [6] was greater than 100 µM each time. Besides, the TGI in [7], in experiment [8], in experiment [9], in [10], in [11] and in experiment [12] was greater than 100 µM each time. The TGI in experiment [13], in experiment [14], in experiment [15], in experiment [16], in experiment [17] and in [18] was greater than 100 µM throughout.

Values taken from PubChem BioAssay (NCI).
